Tests used:
T11 tumours = assay: T11 allograft in BALB/c mice, intratumoral treatment; type: in vivo; conditions: day 14 post-inoculation, mean±SEM
Method: To investigate the efficacy of the combination of melittin and docetaxel in reducing TNBC growth in vivo, T11 cells were transplanted in BALB/c mice. This allograft model recapitulates highly aggressive, TNBC claudin-low disease in mice with an intact immune system. Three days after the generation of T11 tumours (˜50 mm^3), mice were randomized into four groups (n=12 mice/group) and treated intratumorally with either vehicle, melittin (5 mg/Kg), docetaxel (7 mg/Kg), or a combination of melittin (5 mg/Kg) and docetaxel (7 mg/Kg). Mice were treated every two days from day three, with a total of seven treatments.
The therapeutic effects of melittin and docetaxel were validated in tumour tissues at day 14 post-inoculation of T11 cells by immunohistochemistry and immunofluorescence (FIG. 14A).

SUM159 cells [1] = assay: Annexin V flow cytometry; type: cell-based, human; conditions: IC50 concentration, 60 minutes, mean±SEM
Method: To quantify the apoptotic, necrotic or dead cell populations after treatment, flow cytometry for the detection of Annexin V (an early marker of apoptosis) was performed.

[2] = system: p-HER2, p-EGFR, p-p44/42 MAPK, p-Akt in SKBR3 cells; assay: Immunoblotting of RTK signalling, SKBR3; type: cell-based, human; conditions: SKBR3, EGF exposed, IC50, from 5 minutes onwards
T11 cells [3] = assay: Cell viability, combination with docetaxel; type: cell-based, murine; conditions: T11, 48 hours
Method: FIG. 15 presents the results of cell viability assays of T11 breast cancer cells treated with melittin or RGD1-melittin alone and in combination with docetaxel for 48 hours. Representative plots of the combination treatments are presented as mean±SEM.
The murine p53 TNBC cell line T11 was treated with docetaxel in combination with either melittin or RGD1-melittin, and cell viability assays were conducted to determine the combination effect between the treatments (FIG. 15).

T11 cells [4] = assay: Cell viability, combination with omomyc; type: cell-based, murine; conditions: T11, 24 hours
Method: FIG. 16 presents the results of cell viability assays of T11 breast cancer cells treated with melittin or RGD1-melittin alone and in combination with omomyc for 24 hours. Representative plots of the combination treatments are presented as mean±SEM.
The murine p53 TNBC cell line T11 was treated with omomyc in combination with either melittin or RGD1-melittin, and cell viability assays were conducted to determine the combination effect between the treatments (FIG. 16).

SUM159 cells [5] = assay: Cleaved caspase-3 immunoblot; type: cell-based, human
COV362 cells = type: cell-based; conditions: COV362, 24 h
Method: (§1) The OVCAR3 and COV362 ovarian cancer cell lines were treated with active RGD1-melittin and mutant RGD1-melittin (DEDE-RGD1-melittin). The COV362 cells were cultured in DMEM low glucose medium supplemented with 10% FBS. The OVCAR3 cells were grown in RPMI medium supplemented with 20% FBS. Cells were seeded overnight at a density of 5000 cells/p96-well plate and treated with active RGD1-melittin and mutant RGD1-melittin (RGD1-DEDE melittin), for 24 h at concentrations up to 20 µM. After treatments, cell viability was assessed using the CellTiter-Glo® assay according to the manufacturer's protocol (Promega; NSW, Australia). Luminescence signals were measured using the EnVision Multilabel Plate Reader (PerkinsElmer Inc.; Waltham, MA, USA). IC50s were calculated and transformed 95% confidence intervals provided by GraphPad Prism 6 software analysis (GraphPad Software Inc., San Diego, CA, USA).

OVCAR3 cells = type: cell-based; conditions: OVCAR3, 24 h
Method: as §1

[6] = system: EGFR and MAPK phosphorylation in MDA-MB-231 cells; assay: Immunoblotting of RTK signalling, MDA-MB-231; type: cell-based, human; conditions: MDA-MB-231, EGF treatment
Method: To characterize the effects on signaling pathways in another TNBC model, immunoblotting was conducted on MDA-MB-231 cells, in which EGF treatment phosphorylated EGFR and induced EGFR expression (FIG. 8C). […] Other growth factor receptors such as VEGFR1 may mediate the activation of these pathways.

[7] = system: human TNBC and HER2-enriched breast cancer cells; assay: Cell viability dose-response assay, TNBC and HER2-enriched panel; type: cell-based; conditions: range over human TNBC and HER2-enriched breast cancer cells
Method: (§2) To assess anticancer efficacy and selectivity, both venom from European honeybees collected in Perth, Australia and melittin peptide were evaluated in dose-response assays in a panel of cell lines representative of the intrinsic breast cancer subtypes and in non-transformed cells.
Data are presented as mean±SEM in ng/μL or μM (to two decimal places). Experiments were performed in biological triplicate.

[8] = system: JAK/STAT pathway in SUM159 cells; assay: Western blot of JAK/STAT pathway; type: cell-based, human; conditions: 60-minute treatment
[9] = system: p-EGFR, p-Akt, p-p44/42 MAPK in SUM159 cells; assay: Immunoblotting of RTK signalling, SUM159; type: cell-based, human
SUM159 cells [10] = system: SUM159 cells
Method: FIG. 5C presents cell viability assays of human dermal fibroblasts (HDFa) and SUM159 treated with melittin (top) and RGD1-melittin (bottom) for 24 hours.
as §2

[11] = system: HDFa, SKBR3 and SUM159 cells; assay: Cell viability kinetics over one hour; type: cell-based, human; conditions: IC50 concentrations

SMILES | PD-L1 expression in tumours (T11 tumours) [%] | tumour cell proliferation (Ki-67 expression) (T11 tumours) [%] | late apoptotic/necrotic cells (SUM159 cells [1]) [%] | p-HER2 (Tyr1248), p-EGFR (Tyr1068), p-p44/42 MAPK (Thr202/Tyr204), p-Akt (Ser473 and Thr308) [2] | combination effect with docetaxel on cell viability (T11 cells [3]) | combination effect with omomyc on cell viability (T11 cells [4]) | induction of apoptosis (cleaved caspase-3) (SUM159 cells [5]; 24 hours) | induction of cleaved caspase-3 (apoptosis) (SUM159 cells [5]; IC50 concentration, 18 and 24 hours) | IC50 (COV362 cells) [µM] | IC50 (OVCAR3 cells) [µM] | phosphorylation of EGFR and MAPK [6] | IC50 [7] [µM] | effects on JAK/STAT pathway inhibitors [8] | p-EGFR (Tyr1068) ([9]; SUM159, 10-20 minutes) | p-p44/42 MAPK (Thr202/Tyr204) ([9]; SUM159, 10-20 minutes) | p-Akt (Ser473 and Thr308) ([9]; SUM159, melittin all time points, venom 10-20 minutes) | ratio of the IC50s of HDFa/SUM159 (SUM159 cells [10]; 24 hours, mean±SEM) | half-maximal inhibitory concentration (IC50) (SUM159 cells [10]; TNBC SUM159) [µg/mL] | cell viability over up to one hour [11]
CC(=O)O[C@@]12CO[C@@H]1C[C@H](O)[C@@]1(C)C(=O)[C@H](O)C3=C(C)[C@@H](OC(=O)[C@H](O)[C@@H](NC(=O)OC(C)(C)C)c4ccccc4)C[C@@](O)([C@@H](OC(=O)c4ccccc4)[C@H]21)C3(C)C [docetaxel] | 84.3±0.6 | 21.0±1.3 | – | – | – | – | – | – | – | – | – | – | – | – | – | – | – | – | –
CC[C@H](C)[C@H](NC(=O)CN)C(=O)NCC(=O)N[C@@H](C)C(=O)N[C@H](C(=O)N[C@@H](CC(C)C)C(=O)N[C@@H](CCCCN)C(=O)N[C@H](C(=O)N[C@@H](CC(C)C)C(=O)N[C@H](C(=O)N[C@H](C(=O)NCC(=O)N[C@@H](CC(C)C)C(=O)N1CCC[C@H]1C(=O)N[C@@H](C)C(=O)N[C@@H](CC(C)C)C(=O)N[C@H](C(=O)N[C@@H](CO)C(=O)N[C@@H](Cc1c[nH]c2ccccc12)C(=O)N[C@H](C(=O)N[C@@H](CCCCN)C(=O)N[C@@H](CCCNC(=N)N)C(=O)N[C@@H](CCCCN)C(=O)N[C@@H](CCCNC(=N)N)C(=O)N[C@@H](CCC(N)=O)C(=O)N[C@@H](CCC(N)=O)C(N)=O)[C@@H](C)CC)[C@@H](C)CC)[C@@H](C)O)[C@@H](C)O)C(C)C)C(C)C [melittin] | 52.9±2.4 | 31.7±1.3 | 23.6±5.7 | strongly downregulated | beneficial effect when combined with docetaxel | beneficial effect when combined with omomyc | confirmed the anticancer activity | higher level of apoptosis than honeybee venom | 7.81 | 18.2 | reduced the phosphorylation of EGFR and MAPK | 0.94 to 1.49 | No modulatory effects | strongly down-regulated | upregulated | suppressed | 1.76±0.04 | 4.24 | significantly reduced the viability of both breast cancer cell lines compared to the normal cells from 10 minutes onwards

Source: US20240391964A1, “COMPOSITIONS AND METHODS FOR THE TREATMENT OF CANCER” (The University of Western Australia, priority 2020, published 2024)
